Measurements taken from publication PMC11582173, “Synthesis, cytotoxicity, anti-inflammatory, anti-metastatic and anti-oxidant activities of novel chalcones incorporating 2-phenoxy-N-arylacetamide and thiophene moieties: induction of apoptosis in MCF7 and HEP2 cells” (Naunyn-Schmiedeberg's Archives of Pharmacology, 2024).
Values after ≈ are worked out from the molar mass of the structure shown.

Legend:
[1] = tested on: MCF7; set-up: method as in Khairul et al. [2020]; settings: reported chalcone derivatives; ref Khairul et al. [2020]; cited from earlier work
[2] = tested on: human colorectal carcinoma (HCT116) cells; test: SRB cytotoxic assay, HCT116; type: cell-based; settings: HCT-116, single dose 100 µg/mL, 48 h, read-out: %Inhibition at100 µg/mL HCT116
Procedure: (§1) All the prepared compounds were screened at a concentration of 100 µg/mL against six different human cell lines: human laryngeal carcinoma (HEP2), human colorectal carcinoma (HCT116), human breast carcinoma (MCF7), human Lung carcinoma (A549), human liver carcinoma (HEPG2), and normal African Green monkey kidney cell line (VERO). Doxorubicin was used as a positive control for comparison purposes.
(§2) The human laryngeal carcinoma (HEP2), colorectal carcinoma (HCT116), breast carcinoma (MCF7), Lung carcinoma (A549), liver carcinoma (HEPG2), and normal African Green monkey kidney cell line (VERO) were purchased from American Tissue Culture Collection (Rockville, MD, USA). The cells were treated for 48 h with a single dose (100 µg/mL) of all the tested chalcones. […] In brief, the cells were seeded in a 96-well microtiter plate at a concentration of 5×10^3 cells/well in 100 µL fresh RPMI-1640 medium and left to attach to the plates for 24 h. Then, cells were incubated with 100 μL of different concentrations (50, 25, 12.5, 6.25, and 0.0 µg/mL) of 5c in triplicate at 37 °C for 48 h. After that, the cells were fixed with 10 µL cold 100% Trichloroacetic acid (TCA) for 1h at 4 °C. The wells were then washed 1 time with distilled water using (automatic Tecan washer, Germany) and stained for 30 min at room temperature with 50 µL 0.4% SRB dissolved in 1% acetic acid. The plates were air-dried and the dye was solubilized with 100 µl/well of 1M tris base (pH 10.5) for 5 min. The optical density (O.D.) of each well was measured spectrophotometrically at 570 nm with an ELISA microplate reader (Sunrise Tecan reader, Germany) with automatic shaking for 30 seconds before reading. The mean background absorbance was subtracted automatically and mean values for each drug concentration were calculated. The percentage of cell survival was calculated as follows: Survival fraction= O.D. (treated cells)/ O.D. (control cells) (Bhat et al. [2023]).

[3] = tested on: human liver carcinoma (HEPG2) cells; test: SRB cytotoxic assay, HEPG2; type: cell-based; settings: single dose 100 µg/mL, 48 h, read-out: %Inhibition at100 µg/mL HEPG2
Procedure: as §1, §2

[4] = tested on: human Lung carcinoma (A549) cells; test: SRB cytotoxic assay, A549; type: cell-based; settings: single dose 100 µg/mL, 48 h, read-out: %Inhibition at100 µg/mL A549
Procedure: as §1, §2

[5] = tested on: normal African Green monkey kidney cell line (VERO); test: SRB cytotoxic assay, VERO normal cells; type: cell-based; settings: Chlorocebus sabaeus, single dose 100 µg/mL, 48 h, read-out: %Inhibition at100 µg/mL VERO
Procedure: as §1, §2

[6] = tested on: human laryngeal carcinoma (HEP2) cells; test: SRB cytotoxic assay, HEP2; type: cell-based; settings: HEp-2, 48 h; for inhibition at 100 µg/mL: single dose 100 µg/mL, read-out: %Inhibition at100 µg/mL HEP2
Procedure: as §1, §2

[7] = tested on: human breast carcinoma (MCF7) cells; test: SRB cytotoxic assay, MCF7; type: cell-based; settings: MCF7, 48 h; for inhibition at 100 µg/mL: single dose 100 µg/mL, read-out: %Inhibition at100 µg/mL MCF7
Procedure: as §1, §2

SMILES	melting point [°C]	IC50 cytotoxic effect against MCF7 [1] [µg/mL]	inhibition at 100 µg/mL [2] [%]	inhibition at 100 µg/mL [3] [%]	inhibition at 100 µg/mL [4] [%]	inhibition at 100 µg/mL [5] [%]	inhibition at 100 µg/mL [6] [%]	inhibition at 100 µg/mL [7] [%]	IC50 [6] [µg/mL]	IC50 [7] [µg/mL]
CCCCCCOc1ccc(/C=C/C(=O)c2ccc([N+](=O)[O-])cc2)cc1 [(E)-1-(4-nitrophenyl)-3-(4-(hexyloxy)phenyl) prop-2-en-1-one]		14.75 (≈ 41.7 µM)								
O=C(COc1ccc(C(=O)C=Cc2cccs2)cc1)Nc1ccccc1 [Compound 9a, N-Phenyl-2-(4-(3-(thiophen-2-yl)acryloyl)phenoxy)acetamide]			44.7 ± 1	64 ± 1.5	52 ± 2.7	58 ± 1.4	> 75	> 75	15.5 (≈ 42.6 µM)	24.5 (≈ 67.4 µM)
COc1cccc2c1C(=O)c1c(O)c3c(c(O)c1C2=O)C[C@@](O)(C(=O)CO)C[C@@H]3O[C@H]1C[C@H](N)[C@H](O)[C@H](C)O1 [Doxorubicin, reference compound]			71.5 ± 0.9	81 ± 2	77 ± 1.5	45 ± 2	83.2 ± 1.1	86.6 ± 1.6	11 (≈ 20.2 µM)	5.5 (≈ 10.1 µM)
CCCCCCOc1ccc(/C=C/C(=O)c2ccc(C#N)cc2)cc1 [(E)-1-(4-cyanophenyl)-3-(4-(hexyloxy)phenyl) prop-2-en-1-one]		13.75 (≈ 41.2 µM)								

Now from value to molecule, other results behind:

melting point [°C]	SMILES	IC50 cytotoxic effect against MCF7 [1] [µg/mL]	inhibition at 100 µg/mL [2] [%]	inhibition at 100 µg/mL [3] [%]	inhibition at 100 µg/mL [4] [%]	inhibition at 100 µg/mL [5] [%]	inhibition at 100 µg/mL [6] [%]	inhibition at 100 µg/mL [7] [%]	IC50 [6] [µg/mL]	IC50 [7] [µg/mL]
198 to 200	O=C(COc1ccc(C=CC(=O)c2cccs2)cc1)Nc1ccc(Cl)cc1 [Compound 5d, N-(4-Chlorophenyl)-2-(4-(3-oxo-3-(thiophen-2-yl)prop-1-en-1-yl)phenoxy)acetamide]		0.85 ± 1.1	45.2 ± 1.7	44.1 ± 1.3	80 ± 2	0.36 ± 0.05	40.09 ± 0.07		
202 to 204	Cc1ccc(NC(=O)COc2ccc(C=CC(=O)c3cccs3)cc2)cc1 [Compound 5b, 2-(4-(3-Oxo-3-(thiophen-2-yl)prop-1-en-1-yl)phenoxy)-N-(p-tolyl)acetamide]		5.92 ± 1.2	25 ± 1.9	10.2 ± 2	60 ± 1	7.2 ± 1.4	0.52 ± 2.1		
194 to 196	O=C(COc1ccc(C=CC(=O)c2cccs2)cc1)Nc1ccccc1 [Compound 5a, 2-(4-(3-Oxo-3-(thiophen-2-yl)prop-1-en-1-yl)phenoxy)-N-phenylacetamide]		5.18 ± 1.6	30 ± 1.2	22 ± 1.4	55 ± 3	4.53 ± 0.08	33.7 ± 1.5		
205 to 207	COc1ccc(NC(=O)COc2ccc(C(=O)C=Cc3cccs3)cc2)cc1 [Compound 9c, N-(4-Methoxyphenyl)-2-(4-(3-(thiophen-2-yl)acryloyl)phenoxy)acetamide]		16.3 ± 1.9	< 10	< 10	< 10	7.2 ± 1.7	1.81 ± 1.3		
193 to 195	O=C(COc1ccc(C(=O)C=Cc2cccs2)cc1)Nc1ccc(Cl)cc1 [Compound 9d, N-(4-Chlorophenyl)-2-(4-(3-(thiophen-2-yl)acryloyl)phenoxy)acetamide]		6.66 ± 3.3	< 10	< 10	10 ± 1	17.9 ± 2.3	2.28 ± 4.1		
200 to 202	Cc1ccc(NC(=O)COc2ccc(C(=O)C=Cc3cccs3)cc2)cc1 [Compound 9b, 2-(4-(3-(Thiophen-2-yl)acryloyl)phenoxy)-N-(p-tolyl)acetamide]		0.92 ± 1.7	26 ± 1.7	33 ± 3.1	15 ± 2.4	17.9 ± 1.3	18.6 ± 0.05		
